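Dose response: 5 concentrations. Exposure: 48 h. Format: 96-well plates. Endpoint: linear interpolation; highest concentration if not reached. GI50 marks 50% less growth.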 Activity calls are given as the source filed them. Rule as the data show it: active = GI50 up to about 1.1 µM and inactive = higher. Starred links: 1 amine or outer side, 2 acyl side, 3 side chain; linkers in the order of their positions; H or OH if unused. Positions of bridges follow the written chain, without caps; N, C: chain ends. Non-standard residues stand in square brackets, D forms with d. Residues, ends and D or L forms follow the SMILES beside them. ξ: configuration not given here. *: point of attachment. γ4hArg(2R,3R-(OH)2) = N=C(N)NCCC[C@H](N[*:1])[C@@H](O)[C@@H](O)C(=O)[*:2]; Gln(3S,4R-Me2) = C[C@H]([C@H](N)C(=O)O)[C@@H](C)C(N)=O; X50 = CC(C)C[C@H](C)[C@@H](O)[C@@H](C)C(=O)*; X51 = COC(c1ccc(O)cc1)C(N[*:1])C(=O)[*:2]; NMeQ = CN[C@@H](CCC(N)=O)C(=O)O; Thr(3ξ) = CC(O)[C@H](N)C(=O)O; NMeA = CN[C@@H](C)C(=O)O
Key:
Experiment in all cases: NCI-60 cell line screen, 48 h
RPMI-8226 = test system: RPMI-8226
HT-29 = test system: HT-29
NCI/ADR-RES = test system: NCI/ADR-RES
SF-295 = test system: SF-295
EKVX = test system: EKVX
T47D = test system: T47D
M14 = test system: M14
ACHN = test system: ACHN
SNB-19 = test system: SNB-19
MCF7 = test system: MCF7
UACC-62 = test system: UACC-62
K562 = test system: K562
KM12 = test system: KM12
Hs-578T = test system: Hs-578T
MDA-MB-435 = test system: MDA-MB-435
HL-60 = test system: HL-60
Malme-3M = test system: Malme-3M
NCI-H522 = test system: NCI-H522
SK-OV-3 = test system: SK-OV-3
HCC 2998 = test system: HCC 2998
SR = test system: SR
SK-MEL-5 = test system: SK-MEL-5
SF-539 = test system: SF-539
MDA-N = test system: MDA-N
PC-3 = test system: PC-3
SN12C = test system: SN12C
SF-268 = test system: SF-268
SK-MEL-2 = test system: SK-MEL-2
NCI-H226 = test system: NCI-H226
HCT-15 = test system: HCT-15
OVCAR-4 = test system: OVCAR-4
NCI-H460 = test system: NCI-H460
SNB-75 = test system: SNB-75
HCT-116 = test system: HCT-116
A498 = test system: A498
NCI-H23 = test system: NCI-H23
RXF 393 = test system: RXF 393
OVCAR-3 = test system: OVCAR-3
UACC-257 = test system: UACC-257
UO-31 = test system: UO-31
HOP-62 = test system: HOP-62
COLO 205 = test system: COLO 205
CAKI-1 = test system: CAKI-1
MOLT-4 = test system: MOLT-4
BT-549 = test system: BT-549
786-0 = test system: 786-0
A549 = test system: A549
SW-620 = test system: SW-620
LOX IMVI = test system: LOX IMVI
DU-145 = test system: DU-145
HOP-92 = test system: HOP-92
TK-10 = test system: TK-10
IGROV-1 = test system: IGROV-1
MDA-MB-231 = test system: MDA-MB-231
U-251 = test system: U-251
OVCAR-5 = test system: OVCAR-5
OVCAR-8 = test system: OVCAR-8
CCRF-CEM = test system: CCRF-CEM
SK-MEL-28 = test system: SK-MEL-28

SMILES: COC(c1ccc(O)cc1)C1NC(=O)[C@H](CCC(N)=O)N(C)C(=O)[C@H](CC(C)C)NC(=O)[C@@H](CCCN=C(N)N)NC(=O)[C@H](C(C)O)NC(=O)[C@@H](NC(=O)[C@@H](NC(=O)[C@H](O)[C@H](O)[C@H](CCCN=C(N)N)NC(=O)[C@H](C)NC(=O)[C@H](C)[C@H](O)[C@@H](C)CC(C)C)[C@@H](C)[C@@H](C)C(N)=O)[C@@H](C)OC(=O)[C@H](C)N(C)C1=O (stereo partly drawn) (X50-A[γ4hArg(2R,3R-(OH)2)][Gln(3S,4R-Me2)]T[Thr(3ξ)][dR]L[NMeQ][X51][NMeA]; ester 4-C)
- GI50 (RPMI-8226): 0.106 µM (active)
- GI50 (HT-29): 0.0904 µM (active)
- GI50 (NCI/ADR-RES): 0.222 µM (active)
- GI50 (SF-295): 0.0925 µM (active)
- GI50 (EKVX): 0.0995 µM (active)
- GI50 (T47D): 0.138 µM (active)
- GI50 (M14): 0.115 µM (active)
- GI50 (ACHN): 0.115 µM (active)
- GI50 (SNB-19): 0.0929 µM (active)
- GI50 (MCF7): 0.14 µM (active)
- GI50 (UACC-62): 0.126 µM (active)
- GI50 (K562): 0.0847 µM (active)
- GI50 (KM12): 0.121 µM (active)
- GI50 (Hs-578T): 0.0405 µM (active)
- GI50 (MDA-MB-435): 0.145 µM (active)
- GI50 (HL-60): 0.167 µM (active)
- GI50 (Malme-3M): 0.084 µM (active)
- GI50 (NCI-H522): 0.0598 µM (active)
- GI50 (SK-OV-3): 0.189 µM (active)
- GI50 (HCC 2998): 0.0877 µM (active)
- GI50 (SR): 0.143 µM (active)
- GI50 (SK-MEL-5): 0.0682 µM (active)
- GI50 (SF-539): 0.0859 µM (active)
- GI50 (MDA-N): 0.135 µM (active)
- GI50 (PC-3): 0.187 µM (active)
- GI50 (SN12C): 0.149 µM (active)
- GI50 (SF-268): 0.0525 µM (active)
- GI50 (SK-MEL-2): 0.247 µM (active)
- GI50 (NCI-H226): 0.212 µM (active)
- GI50 (HCT-15): 0.133 µM
- GI50 (OVCAR-4): 0.134 µM (active)
- GI50 (NCI-H460): 0.0604 µM (active)
- GI50 (SNB-75): 0.0902 µM (active)
- GI50 (HCT-116): 0.281 µM (active)
- GI50 (A498): 0.641 µM (active)
- GI50 (NCI-H23): 0.0944 µM (active)
- GI50 (RXF 393): 0.267 µM (active)
- GI50 (OVCAR-3): 0.083 µM (active)
- GI50 (UACC-257): 0.113 µM (active)
- GI50 (UO-31): 0.249 µM (active)
- GI50 (HOP-62): 0.15 µM (active)
- GI50 (COLO 205): 0.0881 µM (active)
- GI50 (CAKI-1): 0.102 µM (active)
- GI50 (MOLT-4): 0.139 µM (active)
- GI50 (BT-549): 0.242 µM (active)
- GI50 (786-0): 0.204 µM (active)
- GI50 (A549): 0.141 µM (active)
- GI50 (SW-620): 0.137 µM (active)
- GI50 (LOX IMVI): 0.482 µM (active)
- GI50 (DU-145): 0.0764 µM (active)
- GI50 (HOP-92): 0.138 µM (active)
- GI50 (TK-10): 0.146 µM (active)
- GI50 (IGROV-1): 0.0746 µM (active)
- GI50 (MDA-MB-231): 0.106 µM (active)
- GI50 (U-251): 0.121 µM (active)
- GI50 (OVCAR-5): 0.167 µM (active)
- GI50 (OVCAR-8): 0.0889 µM (active)
- GI50 (CCRF-CEM): 0.151 µM (active)
- GI50 (SK-MEL-28): 0.223 µM (active)

SMILES: CCOP(=O)(OCC)C(Nc1ccc(F)cc1)c1ccccc1 (stereo not drawn)
- GI50 (RPMI-8226): > 100 µM (inactive)
- GI50 (HT-29): > 100 µM (inactive)
- GI50 (NCI/ADR-RES): > 100 µM (inactive)
- GI50 (SF-295): > 100 µM (inactive)
- GI50 (EKVX): > 100 µM (inactive)
- GI50 (T47D): 35.1 µM (inactive)
- GI50 (M14): > 100 µM (inactive)
- GI50 (ACHN): > 100 µM (inactive)
- GI50 (SNB-19): > 100 µM (inactive)
- GI50 (MCF7): > 100 µM (inactive)
- GI50 (UACC-62): > 100 µM (inactive)
- GI50 (K562): 57.9 µM (inactive)
- GI50 (KM12): > 100 µM (inactive)
- GI50 (Hs-578T): > 100 µM (inactive)
- GI50 (MDA-MB-435): > 100 µM (inactive)
- GI50 (HL-60): 77.4 µM (inactive)
- GI50 (Malme-3M): > 100 µM (inactive)
- GI50 (NCI-H522): 56.5 µM (inactive)
- GI50 (SK-OV-3): > 100 µM (inactive)
- GI50 (HCC 2998): > 100 µM (inactive)
- GI50 (SR): 97.7 µM (inactive)
- GI50 (SK-MEL-5): > 100 µM (inactive)
- GI50 (SF-539): > 100 µM (inactive)
- GI50 (MDA-N): 79.3 µM (inactive)
- GI50 (PC-3): 32 µM (inactive)
- GI50 (SN12C): 43.8 µM (inactive)
- GI50 (SF-268): > 100 µM (inactive)
- GI50 (SK-MEL-2): > 100 µM (inactive)
- GI50 (NCI-H226): > 100 µM (inactive)
- GI50 (HCT-15): > 100 µM
- GI50 (OVCAR-4): > 100 µM (inactive)
- GI50 (NCI-H460): > 100 µM (inactive)
- GI50 (SNB-75): > 100 µM (inactive)
- GI50 (HCT-116): > 100 µM (inactive)
- GI50 (A498): > 100 µM (inactive)
- GI50 (NCI-H23): > 100 µM (inactive)
- GI50 (RXF 393): > 100 µM (inactive)
- GI50 (OVCAR-3): > 100 µM (inactive)
- GI50 (UACC-257): > 100 µM (inactive)
- GI50 (UO-31): 82.2 µM (inactive)
- GI50 (HOP-62): > 100 µM (inactive)
- GI50 (COLO 205): > 100 µM (inactive)
- GI50 (CAKI-1): > 100 µM (inactive)
- GI50 (MOLT-4): 92.9 µM (inactive)
- GI50 (BT-549): 79.6 µM (inactive)
- GI50 (786-0): > 100 µM (inactive)
- GI50 (A549): > 100 µM (inactive)
- GI50 (SW-620): > 100 µM (inactive)
- GI50 (LOX IMVI): > 100 µM (inactive)
- GI50 (DU-145): > 100 µM (inactive)
- GI50 (HOP-92): 94.6 µM (inactive)
- GI50 (TK-10): > 100 µM (inactive)
- GI50 (IGROV-1): > 100 µM (inactive)
- GI50 (MDA-MB-231): > 100 µM (inactive)
- GI50 (U-251): > 100 µM (inactive)
- GI50 (OVCAR-5): > 100 µM (inactive)
- GI50 (OVCAR-8): > 100 µM (inactive)
- GI50 (CCRF-CEM): > 100 µM (inactive)
- GI50 (SK-MEL-28): > 100 µM (inactive)
